According to US20210395239A1 (Hoffmann-La Roche Inc., priority 2018, published 2021):

Target: T1, hTLR9 (Homo sapiens, UniProt Q9NR96)
T1 sequence (Q9NR96 26-1032): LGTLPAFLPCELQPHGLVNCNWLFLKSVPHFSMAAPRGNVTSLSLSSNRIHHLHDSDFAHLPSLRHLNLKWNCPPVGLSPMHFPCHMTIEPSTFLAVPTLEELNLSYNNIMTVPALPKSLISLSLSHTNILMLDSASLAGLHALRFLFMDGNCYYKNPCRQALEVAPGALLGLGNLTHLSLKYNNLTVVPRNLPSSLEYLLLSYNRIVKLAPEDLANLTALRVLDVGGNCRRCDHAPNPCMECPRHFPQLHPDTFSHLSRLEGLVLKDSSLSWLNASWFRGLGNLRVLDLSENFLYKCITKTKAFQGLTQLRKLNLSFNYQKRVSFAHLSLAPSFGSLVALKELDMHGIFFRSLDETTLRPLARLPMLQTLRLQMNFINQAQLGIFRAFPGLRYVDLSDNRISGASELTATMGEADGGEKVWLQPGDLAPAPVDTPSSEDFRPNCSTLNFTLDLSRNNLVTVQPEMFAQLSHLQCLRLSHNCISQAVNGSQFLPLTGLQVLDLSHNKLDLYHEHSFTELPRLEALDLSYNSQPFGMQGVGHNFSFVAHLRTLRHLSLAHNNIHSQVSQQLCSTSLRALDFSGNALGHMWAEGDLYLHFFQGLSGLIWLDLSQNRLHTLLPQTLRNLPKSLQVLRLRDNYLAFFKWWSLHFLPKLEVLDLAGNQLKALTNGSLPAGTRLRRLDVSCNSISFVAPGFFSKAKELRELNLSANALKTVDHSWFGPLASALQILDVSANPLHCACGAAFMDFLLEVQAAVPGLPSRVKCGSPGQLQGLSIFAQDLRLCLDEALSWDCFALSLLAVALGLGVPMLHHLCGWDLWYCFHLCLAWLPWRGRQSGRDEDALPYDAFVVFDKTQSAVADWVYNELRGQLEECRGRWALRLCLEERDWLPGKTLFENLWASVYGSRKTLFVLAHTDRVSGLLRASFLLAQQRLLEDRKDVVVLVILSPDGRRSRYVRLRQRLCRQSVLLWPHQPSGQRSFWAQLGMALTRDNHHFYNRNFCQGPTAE
Assay: HEK293-Blue-hTLR-9 cells assay (SEAP reporter, ODN2006 stimulation)
Type: cell-based
Design: host or cells: HEK293 (HEK-Blue hTLR9)
Details: HEK293-Blue-hTLR9 cells, ODN2006, 20 hrs; read-out: HEK/hTLR9 IC50
Summary of the method: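 HEK293-Blue-hTLR9 cells with NF-κB/AP-1-driven SEAP reporter treated with serially diluted compound (1% DMSO final) plus ODN2006 for 20 h at 37 °C. Supernatant SEAP measured with QUANTI-Blue, 2 h at 37 °C, absorbance 620–655 nm; antagonism seen as reduced reporter signal.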

| SMILES | IC50 [nM] |
| --- | --- |
| C[C@@H]1CN(c2cc(=O)n(C)c3ncccc23)C[C@H](CN2CC(c3ccc(N4CC5(CN(C)C5)C4)cc3)C2)O1 [Example 180, 1-methyl-4-[(2R,6S)-2-methyl-6-[[3-[4-(6-methyl-2,6-diazaspiro[3.3]heptan-2-yl)phenyl]azetidin-1-yl]methyl]morpholin-4-yl]-1,8-naphthyridin-2-one] | 41 |
| C[C@@H]1CN(c2ccc(C#N)n3ncc(F)c23)C[C@H](CN2CCN(c3ccc(C4(C)CNCCO4)cc3)CC2)O1 (stereo partly drawn) [Example 185, 3-fluoro-4-[(2R,6S)-2-methyl-6-[[4-[4-(2-methylmorpholin-2-yl)phenyl]piperazin-1-yl]methyl]morpholin-4-yl]pyrazolo[1,5-a]pyridine-7-carbonitrile] | 186 |
| C[C@@H]1CN(c2ccc(C#N)n3ncc(F)c23)C[C@H](CN2CCN(c3ccc(C[C@@H]4CNCCO4)cc3)CC2)O1 [Example 186, 3-fluoro-4-[(2R,6S)-2-methyl-6-[[4-[4-[[(2R)-morpholin-2-yl]methyl]phenyl]piperazin-1-yl]methyl]morpholin-4-yl]pyrazolo[1,5-a]pyridine-7-carbonitrile] | 124 |

The remaining compounds from weak to strong by IC50, led by results:

| IC50 [nM] | SMILES |
| --- | --- |
| 124 | C[C@@H]1CN(c2ccc(C#N)n3ncc(F)c23)C[C@H](CN2CCN(c3ccc([C@@H]4CNCCO4)c(F)c3)CC2)O1 [Example 184, 3-fluoro-4-[(2S,6R)-2-[[4-[3-fluoro-4-[(2R)-morpholin-2-yl]phenyl]piperazin-1-yl]methyl]-6-methyl-morpholin-4-yl]pyrazolo[1,5-a]pyridine-7-carbonitrile] |
| 39 | C[C@@H]1CN(c2cc(=O)n(C)c3ncccc23)C[C@H](CN2CC(c3ccc(N4C[C@H]5NCCO[C@@H]5C4)cc3)C2)O1 [Example 182, 4-[(2S,6R)-2-[[3-[4-[(4aR,7aR)-3,4,4a,5,7,7a-hexahydro-2H-pyrrolo[3,4-b][1,4]oxazin-6-yl]phenyl]azetidin-1-yl]methyl]-6-methyl-morpholin-4-yl]-1-methyl-1,8-naphthyridin-2-one] |
